Laboratory results: patent publication US8093052B2, “Serum-free culture medium for the production of recombinant gonadotropins” (Ares Trading S.A., priority 2005, dated 2012)
Where two headings read alike, the source gives them in different places.

Experiments:
[1] = test system: oxidized forms of rFSH; assay: Oxidized forms of rFSH by RP-HPLC on crude harvest of CHO culture in serum-free medium with antioxidant; type: cell-based, human; details: for ranking of antioxidants for obtaining low levels of rFSH oxidized forms: Runs 1 and 2, Table II; for antioxidant quality from analyses of oxidized rFSH forms: antioxidant added to the culture medium, runs 3 to 5
Procedure: (§1) All experiments were performed with a CHO cell line expressing both subunits of human FSH. The produced protein is a dimeric gonadotropin further referred to as rFSH. The alpha subunit corresponds to SwissProt Accession No. P01215 and the beta subunit corresponds to SwissProt Accession No. P01225.
The medium used for cell cultivation was a basic serum-free medium (SFM) designed for cultivation of CHO cells. The SFM medium was supplemented with the antioxidant to be tested as detailed in Example 3.
(§2) At least 2.4.10^9 viable rFSH-producing cells were transferred to a 15 L bioreactor with an effective working volume of 11 L (newMBR, Zürich) comprising microcarriers. Immediately after seeding followed a batch phase that lasted for two or three days. The bioreactor was then continuously fed with SFM to a dilution rate of 1 day^−1 and to a perfusion rate at 11 L·day)^−1.
Growth phase and production phase were performed at the same pH and temperature (37° C., pH=7). The Dissolved Oxygen (DO) was maintained at 50% air saturation during the whole run.
Oxidized forms were determined by RP-HPLC on crude harvest as described by Bassett and Driebergen (Bassett and Driebergen, 2005).
SFM was supplemented with several antioxidant or combination of antioxidants in order to reach the final concentration shown in Table II. Each antioxidant or combination of antioxidants was tested for a period of about ten days. The first day of the test, the volume of antioxidant solution necessary to reach the set-point was added. Every day thereafter, a certain amount of antioxidant was washed out from the bioreactor by perfusion and replaced by one time addition (for a dilution rate of 1 d^−1, 63.2% of the bioreactor volume was renewed every 24 h and this represents the amount of antioxidant to be replaced every day). At the end of the test period, the antioxidant was washed out from the bioreactor by perfusion, and replaced by another antioxidant to be tested.
The percentage of oxidized forms of rFSH was measured at the end of each test (table II).
One run (run 3) was performed to test various concentrations of L-glutathione (from 1 to 20 mg/L), and one run (run 4) was performed to test various concentrations of L-methionine (from 0.25 to 3 g/L) and. […] Working Day zero (WDO) is defined as the day during which the bioreactor is seeded. Production Day zero (PDO) is defined as the day during which the cell culture process is switch from growth phase to production phase. In addition, a run was performed without varying the antioxidant concentration. In this run, the L-methionine was added at 250 mg/L from the beginning (run 5). For all runs, the percentage of oxidized forms of rFSH was measured regularly (table IV).

[2] = test system: CHO cell line expressing both subunits of human FSH; assay: Total viable cells ratio (TVC ratio) during antioxidant test period; type: cell-based, Chinese Hamster; details: end of test/start of test, >=1.0 = no toxic effect
Procedure: as §1, §2
The total viable cell concentration is defined as the sum of the concentration of cells attached on microcarriers and the concentration of viable cells in suspension.
The Total Viable Cells Ratio (TVC Ratio) for was calculated as follows: [total viable cell concentration, end of test]/[total viable cell concentration, start of test] wherein the start of test is defined as the day at which a new antioxidant is introduced in the culture, and the end of test is defined as the day before the next antioxidant is introduced in the culture.
(§3) The total viable cell concentration, the GCR and the rFSH titers were measured daily.

[3] = test system: CHO cell line expressing both subunits of human FSH
Procedure: The rFSH titer was measured by an immunofluorimetric assay, using the Delphia hFSH kit from Wallac-ADL (Cat. No. A017-201).
The glucose consumption rate (GCR), expressed in gram per liter and per day, was calculated as follows: GCR=(G0−Gt)Dt+(Gt−1−Gt)
G stands for “Glucose concentration” and D stands for “dilution rate”. The indexes refer to the following:
as §3

`CC(=O)N[C@@H](CS)C(=O)O` [N-acetyl-L-cysteine] was tested, and the “oxidized forms (normalized value)” value ([1]; Run 2, 260 mg/L, measured WD38, divided by 23.4% (L-cysteine 280 mg/L, run 2)) was 0.77, the “% of oxidized forms” value ([1]; Run 2, mean concentration 260 mg/L, tested WD30 to WD40, measured WD38) was 18.1% and the “TVC Ratio” value ([2]; Run 2, 260 mg/L, WD30 to WD40) was 1.3.
For `OCCS` [2-mercaptoethanol], the “oxidized forms (normalized value)” value ([1]; Run 1, 10 mg/L, measured WD59, divided by 23.4% (L-cysteine 280 mg/L, run 2)) was 0.53, the “% of oxidized forms” value ([1]; Run 1, mean concentration 10 mg/L, tested WD50 to WD60, measured WD59) was 12.3% and the “ranking of antioxidants for obtaining low levels of rFSH oxidized forms” value (from here on “ranking of antioxidants”) [1] was “best antioxidants for obtaining low levels of rFSH oxidized forms”. For the same compound, the “TVC Ratio” value ([2]; Run 1, 10 mg/L, WD50 to WD60) was 0.8.
`N[C@@H](CCC(=O)N[C@@H](CS)C(=O)NCC(=O)O)C(=O)O` [L-glutathione] was tested, and the “impact on viability of the cells, metabolism and productivity patterns” value [3] was “did not have any major impact”, the “oxidized forms (normalized value)” value ([1]; Run 1, 3 mg/L, measured WD50, divided by 23.4% (L-cysteine 280 mg/L, run 2)) was 0.61 and the “% of oxidized forms” value ([1]; Run 1, mean concentration 3 mg/L, tested WD40 to WD50, measured WD50) was 14.2%. The “decrease of percentage of oxidized forms” value ([1]; Run 3, 2.5 mg/L, compared to run 1 and run 2 with L-cysteine as antioxidant) was “around 35%”, the “% oxidized forms” value ([1]; Run 3, mean concentration 1 mg/L, measured WD19) was 18.31% and the “% oxidized forms” value ([1]; Run 3, mean concentration 2.5 mg/L, measured WD28) was 14.26%. The “% oxidized forms” value ([1]; Run 3, mean concentration 5 mg/L, measured WD40) was 23.99%, the “ranking of antioxidants” value [1] was “best antioxidants for obtaining low levels of rFSH oxidized forms” and the “antioxidant quality from analyses of oxidized rFSH forms” value [1] was “good antioxidant”. For the same compound, the “TVC Ratio” value ([2]; Run 1, 3 mg/L, WD40 to WD50) was 1.2.
For `CSCC[C@H](N)C(=O)O` [L-methionine], the “impact on viability of the cells, metabolism and productivity patterns” value ([3]; in the range of concentration tested (runs 3 to 5), data not shown) was “did not have any major impact”, the “oxidized forms (normalized value)” value ([1]; Run 1, 186 mg/L, measured WD38, divided by 23.4% (L-cysteine 280 mg/L, run 2)) was 0.61 and the “oxidized forms (normalized value)” value ([1]; Run 1, 734 mg/L, measured WD70, divided by 23.4% (L-cysteine 280 mg/L, run 2)) was 0.60. For the same compound, the “% of oxidized forms” value ([1]; Run 1, mean concentration 186 mg/L, tested WD30 to WD40, measured WD38) was 14.3%, the “% of oxidized forms” value ([1]; Run 1, mean concentration 734 mg/L, tested WD60 to WD70, measured WD70) was 14.0% and the “% oxidized forms” value ([1]; Run 4, mean concentration 250 mg/L, measured WD19) was 15.37%. For the same compound, the “% oxidized forms” value ([1]; Run 4, mean concentration 500 mg/L, measured WD28) was 14.26%, the “% oxidized forms” value ([1]; Run 4, mean concentration 1000 mg/L, measured WD40) was 13.56% and the “% oxidized forms” value ([1]; Run 4, mean concentration 2000 mg/L, measured WD49) was 9.77%. The “% oxidized forms” value ([1]; Run 4, mean concentration 3000 mg/L, measured WD59) was 12.66%, the “% oxidized forms” value ([1]; Run 5, 250 mg/L from the beginning, measured WD16-17) was 16.91% and the “% oxidized forms” value ([1]; Run 5, 250 mg/L from the beginning, measured WD20-21) was 14.45%. The “% oxidized forms” value ([1]; Run 5, 250 mg/L from the beginning, measured WD22-23) was 12.94%, the “% oxidized forms” value ([1]; Run 5, 250 mg/L from the beginning, measured WD24-25) was 12.16% and the “% oxidized forms” value ([1]; Run 5, 250 mg/L from the beginning, measured WD26-27) was 10.54%. For the same compound, the “% oxidized forms” value ([1]; Run 5, 250 mg/L from the beginning, measured WD28-29) was 12.83%, the “% oxidized forms” value ([1]; Run 5, 250 mg/L from the beginning, measured WD30-31) was 13.21% and the “decrease of average percentage of oxidized forms” value ([1]; Run 5, 250 mg/L, compared to run 1 and run 2 with L-cysteine as antioxidant) was “around 40%”. For the same compound, the “ranking of antioxidants” value [1] was “best antioxidants for obtaining low levels of rFSH oxidized forms”, the “antioxidant quality from analyses of oxidized rFSH forms” value [1] was “good antioxidant” and the “TVC Ratio” value ([2]; Run 1, 186 mg/L, WD30 to WD40) was 1.4. For the same compound, the “TVC Ratio” value ([2]; Run 1, 734 mg/L, WD60 to WD70) was 1.0.
`O=C1O[C@H]([C@@H](O)CO)C(O)=C1O` [L-ascorbic acid] was tested, and the “oxidized forms (normalized value)” value ([1]; Run 1, 10 mg/L, measured WD30, divided by 23.4% (L-cysteine 280 mg/L, run 2)) was 0.74, the “% of oxidized forms” value ([1]; Run 1, mean concentration 10 mg/L, tested WD20 to WD30, measured WD30) was 17.3% and the “TVC Ratio” value ([2]; Run 1, 10 mg/L, WD20 to WD30) was 1.3.
`N[C@@H](CS)C(=O)O` [L-cysteine, reference compound] was tested, and the “oxidized forms (normalized value)” value ([1]; Run 1, 280 mg/L, measured WD20, divided by 23.4% (L-cysteine 280 mg/L, run 2)) was 0.92, the “% of oxidized forms” value ([1]; Run 1, mean concentration 280 mg/L, tested WD10 to WD20, measured WD20) was 21.5% and the “oxidized forms (normalized value)” value ([1]; Run 2, 280 mg/L, measured WD20, the reference itself (23.4%)) was 1.00. For the same compound, the “oxidized forms (normalized value)” value ([1]; Run 2, 350 mg/L, measured WD50, divided by 23.4% (L-cysteine 280 mg/L, run 2)) was 0.88, the “% of oxidized forms” value ([1]; Run 2, mean concentration 280 mg/L, tested WD0 to WD20, measured WD20) was 23.4% and the “% of oxidized forms” value ([1]; Run 2, mean concentration 350 mg/L, tested WD40 to WD50, measured WD50) was 20.5%.
